# Assay results: US7888330B2, “Phosphoramidate derivatives of FAU” (Wayne State University, priority 2005, dated 2011)
# Where “and” joins values, the source holds several entries; their conditions need not be identical. Equal entries are not always repeated. Entries after “also recorded” stand apart in the source; their conditions may differ.
# Assays:
# RAJI cells = test: Growth inhibition, RAJI cells; type: cell-based, human; details: 72 hours; for growth inhibition (in words): 3-1000 μM
# Method: (§1) The cell lines CEM (T lymphoblastoid cells derived from a human peripheral blood), MOLT-4 (derived from a human acute lymphoblasticleukemia), RAJI (derived from a human Burkitt lymphoma), U-937 (derived from a human histocytic lymphoma), and K-562 (derived from a human chronic myelogenous leukemia) were used to measure the cytotoxicity, as assessed by growth inhibition potential. The cell lines were purchased from the American Type Culture Collection (Vienna, Va.). The cells were grown and maintained as a suspension culture in a RPMI 1640 preparation containing L-glutamine (Biofluids, Rockville, Md.) and 10% (v/v) heat-inactivated fetal calf serum (Invitrogen, Chicago, Ill.); a penicillin-streptomycin solution (Sigma Chemical Co., St. Louis, Mo.) was added to achieve a final concentration of 100 units/mL, and 100 μg/mL respectively. Cells were maintained at 37° C. in a humidified 5% CO2 atmosphere and were passed every 72-96 h to maintain cell densities of approximately 30,000 to 40,000 cells/mL. Under these conditions, the doubling times for CEM cells, MOLT-4 cells, RAJI cells, U-937 cells, and K-562 cells were 21-22 hours.
# (§2) FAU and FAUPA were dissolved in deionized water and sterilized by passing through a Millex-GV, 0.22 μm filter, Millipore, Bedford, Mass.
# (§3) All cell lines were resuspended in fresh media at 3000 to 3500 cells/mL. To each cell suspension final volume 0.2 mL, was added to achieve 0 to 1000 μM concentration of either FAU or FAU-PA. Control experiments had appropriate amounts of sterile distilled water instead of the drug.
# Renca cells [1] = test: DNA incorporation studies (PCA acid extraction) in Renca cells; type: cell-based, mouse; details: 2 hours
# Method: (§4) Renca, a mouse renal carcinoma cell line used for these studies, was a gift from Dr. G. Gali Hillman, Wayne State University. Cells were cultured in RPMI-1640 medium containing L-glutamine (Gibco) supplemented with 10% (v/v) fetal bovine serum (FBS), 100 U/mL penicillin, and 0.1 mg/mL streptomycin. Cells were cultured at 37° C. in a humidified incubator with a gas phase of 95% air and 5% CO2.
# Two days after seeding 1×10^6 cells in 100×20 mm culture dishes, culture medium was replaced with 1 mL medium containing either 1 μCi/mL of [H-3] FAU or [H-3] FAU-PA. Cells were incubated in a humidified incubator for two hours at 37° C. in an atmosphere of 5% CO2 and 95% air. At the end of the incubation period, radioactive medium was removed and cells were washed three times with ice cold PBS. Then, cells were trypsinized, centrifuged and rewashed three times with ice cold PBS. Cells were lysed with 1 mL of 1M ice-cold perchloric acid solution. The cell lysates were vortexed and centrifuged at 14000 g for 15 minutes. The supernatants were removed, and the pellets were rinsed twice with 1 mL PCA. The acid insoluble fractions were resuspended in 200 μl of Soluene-350. All the acid soluble fractions or supernatants and the acid insoluble fractions were mixed with 5 mL of Ultima Gold scintillation cocktail and counted for 5 minutes on a liquid scintillation counter after an overnight chilling. […]
# MOLT-4 cells = test: Growth inhibition, MOLT-4 cells; type: cell-based, human
# Method: as §1, §2
# (§5) All cell lines were resuspended in fresh media at 3000 to 3500 cells/mL. […]
# CEM cells = test: Growth inhibition, CEM cells; type: cell-based, human; details: 72 hours, cell counting
# Method: as §1, §2, §5
# K-562 cells = test: Growth inhibition, K-562 cells; type: cell-based, human; details: 72 hours; for growth inhibition (in words): 3-1000 μM
# Method: as §1, §2, §3
# [2] = target: T1, mammalian cytosolic thymidine kinase (TK1) (Homo sapiens, UniProt P04183); details: relative to thymidine or FMAU (Sun et al., 2003); cited from earlier work
# T1 sequence (P04183 1-234): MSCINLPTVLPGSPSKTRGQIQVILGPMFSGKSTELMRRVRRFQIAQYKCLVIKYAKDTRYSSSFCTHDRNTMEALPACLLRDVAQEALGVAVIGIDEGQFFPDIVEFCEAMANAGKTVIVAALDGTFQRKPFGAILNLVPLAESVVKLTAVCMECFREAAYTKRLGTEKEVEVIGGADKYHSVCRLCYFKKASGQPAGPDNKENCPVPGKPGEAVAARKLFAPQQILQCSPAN
# U-937 cells = test: Growth inhibition, U-937 cells; type: cell-based, human; details: 72 hours
# Method: as §1, §2, §5
# pig liver esterase = test: Pig liver esterase hydrolysis studies; type: in vitro ADME; details: 1 mg/mL in 0.02 M Na2HPO4, 200 units esterase per mL, 37° C., followed by TLC
# Method: Thymidine and phosphoramidate analogs were dissolved in 0.02 M Na2HPO4 at a concentration of 1 mg/mL and 200 units of pig liver esterase per mL solutions (Sigma, St. Louis, Mo.) were added. The mixtures were stirred and maintained at 37° C. through out the course of the experiment. The rate of hydrolysis was followed by thin layer chromatography (TLC) from reaction mixture samples collected at selected intervals. For TLC monitoring, CH2Cl2:MeOH (4:1) and i-PrOH:NH4OH:H2O (7:1:2) mobile phases were used. At the completion of hydrolysis, within 30 minutes, samples were run on a HPLC system.
# Renca cells [3] = test: Tracer uptake studies in Renca cells; type: cell-based, mouse; details: 2 hours, 1 μCi/mL [H-3] tracer
# Method: as §4
# Tracer uptake studies were performed using [H-3]FAU (318.2 GBq/mmol, >99% radiochemical purity), and [H-3]FAU-PA (9.25 GBq/mmol, >99% radiochemical purity). Radiochemicals were obtained from Moravek Biochemicals (Brea, Calif.).
# Renca cells were seeded at 2×10^5 cells/mL in 6 well plates. After 48 hours, when cells were 50-60% confluent, culture medium was replaced with 1 mL medium containing either 1 μCi/mL of [H-3]FAU or [H-3]FAU-PA. Cells were incubated in a humidified incubator for two hours at 37° C. in an atmosphere of 5% CO2 and 95% air. At the end of the incubation period, radioactive medium was removed, and cells were rinsed three times with ice cold phosphate buffered saline (PBS). Then, cells were trypsinized, centrifuged at 2000 g for 5 minutes and rewashed three times with ice cold PBS. […] All the supernatants and pellet samples were mixed with 5 mL of Ultima Gold scintillation cocktail and counted for 5 minutes in a liquid scintillation counter. […]
SMILES,"growth inhibition at 1 mM (in words) (RAJI cells; 1 mM, compared with CEM)",growth inhibition (in words) (RAJI cells),share of total accumulated activity found in the acid insoluble fraction (Renca cells [1]) [%],"growth inhibition at 1 mM (in words) (MOLT-4 cells; 1 mM, 72 hours, compared with CEM)",IC50 (CEM cells) [µM],"growth inhibition at 1 mM (K-562 cells; K-562 cells, 1 mM) [%]",growth inhibition (in words) (K-562 cells; K-562 cells),substrate quality for thymidine kinase (in words) [2],"growth inhibition at 1 mM (in words) (U-937 cells; 1 mM, compared with CEM)","IC50 (RAJI cells; Homo sapiens, cell counting) [µM]",time for hydrolysis by pig liver esterase (pig liver esterase) [min],"IC50 (MOLT-4 cells; Homo sapiens, MOLT-4, 72 hours, cell counting) [µM]","IC50 (CEM cells; Homo sapiens, CCRF-CEM) [µM]","intracellular accumulation of activity, FAU-PA relative to FAU (Renca cells [3])","intracellular accumulation of activity, FAU-PA relative to FAU (Renca cells [3]; listed as [H-3]FAU-PA) [fold]","IC50 (K-562 cells; Homo sapiens, K562, K-562 cells (printed K-567), cell counting) [µM]","IC50 (U-937 cells; Homo sapiens, cell counting) [µM]"
"O=c1ccn([C@@H]2O[C@H](CO)[C@@H](O)[C@@H]2F)c(=O)[nH]1 [FAU, 1-(2′-deoxy-2′-fluoro-β-D-arabinofuranosyl)-uracil, reference compound]",somewhat less inhibited,little growth inhibition,80,somewhat less inhibited,< 100,40,little growth inhibition,poor substrate; also recorded: very poor substrate,somewhat less inhibited,,,,,,,,
"COC(=O)C(C)NP(=O)(OCC1OC(n2ccc(=O)[nH]c2=O)C(F)C1O)Oc1ccccc1 [FAU-PA, 1-(2′-deoxy-2′-fluoro-β-D-arabinofuranosyl)-uracil-5′-(phenylmethoxyalaninyl phosphate]",,little growth inhibition,72,,,,little growth inhibition,,,> 100,≤ 15,< 60,< 60,> 17 fold and 17 fold,17,> 100,< 60
"COC(=O)C(C)NP(=O)(OCC1OC(n2cc(C)c(=O)[nH]c2=O)C[C@H]1O)Oc1ccccc1 (stereo partly drawn) [thymidine-PA, Methyl thymidine-5′-phenylphosphoryl-P→N-alaninate, reference compound]",,,,,,,,,,,15 to 30,,,,,,
